Source: patent US10920265B2, “Compounds and methods for detection of enzymes that remove methyl succinyl groups from epsilon-amino lysine moieties” (Enzo Life Sciences, Inc., priority 2011, dated 2021)
*: point of attachment. AMC = Cc1cc(=O)oc2cc(N*)ccc12

Key:
SIRT5 = target: T1, SIRT5 (Homo sapiens, UniProt Q9NXA8); conditions: high and uncertain; maximum substrate concentration of 5 mM; read-out: Km estimate; cited from earlier work
T1 sequence (Q9NXA8 37-310): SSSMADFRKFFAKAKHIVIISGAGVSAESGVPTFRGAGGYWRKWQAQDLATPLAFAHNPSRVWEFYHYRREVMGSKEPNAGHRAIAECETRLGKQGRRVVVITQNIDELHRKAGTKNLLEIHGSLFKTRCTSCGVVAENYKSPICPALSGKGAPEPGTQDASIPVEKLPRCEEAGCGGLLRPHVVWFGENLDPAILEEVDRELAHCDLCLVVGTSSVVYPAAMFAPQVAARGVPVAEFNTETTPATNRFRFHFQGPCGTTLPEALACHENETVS

[1] = target: T2, bovine pancreatic trypsin (Bos taurus, UniProt P00760); assay: Trypsin release of AMC from lysyl-AMC compounds; assay type: biochemical; conditions: 1 μM compound, trypsin 2 mg/ml, room temperature
T2 construct: purchased ENZO Life Sciences BML-KI105 or BML-KI176; host or cells: bovine pancreas
T2 sequence (P00760 24-246): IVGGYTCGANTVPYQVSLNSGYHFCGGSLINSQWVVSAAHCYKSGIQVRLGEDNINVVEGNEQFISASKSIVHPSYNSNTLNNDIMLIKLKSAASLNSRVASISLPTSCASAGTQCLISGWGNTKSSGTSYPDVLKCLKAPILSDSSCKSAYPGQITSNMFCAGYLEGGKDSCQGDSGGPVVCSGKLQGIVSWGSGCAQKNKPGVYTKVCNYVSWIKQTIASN
Description: FIG. 2 is a graph showing that trypsin treatment releases fluorescent AMC from Ac-Lys-AMC but not Ac-Lys(Succinyl)-AMC. Samples (100 μl) of 1 μM Ac-Lys-AMC and 1 μM Ac-Lys(Succinyl)-AMC in a buffered solution (50 mM Tris/HCl, pH 8.0, 137 mM NaCl, 2.7 mM KCl, 1 mM MgCl2) were treated with bovine pancreatic trypsin (2 mg/ml) for the indicated times at room temperature. Samples were in the wells of a 96-well, ½-area white microplate and fluorescence was measured at 1 min. intervals at the excitation and emission wavelengths for free AMC (Excitation: 360 nm; Emission: 460 nm) in a Synergy 2 microplate reading fluorimeter (BioTek), Gain 40. The data points at 0 min. represent the fluorescence of equivalent 1 μM Ac-Lys(Succ.)-AMC and 1 μM Ac-Lys-AMC samples in the absence of trypsin.
As noted in the Background of the Invention section above, the protease trypsin catalyzes the hydrolytic cleavage of amide bonds on the carboxyl side of unmodified lysine residues. Hydrolytic cleavage of lysyl amide bonds with AMC or rhodamine 110 (dye components of Compounds 1 and 2, respectively) releases the free amino forms of the dyes. This elicits an upward shift of the dye's fluorescence emission peak wavelength (bathochromic shift), for example to 460 nm for AMC or 530 nm for rhodamine 110. If succinylation of the ε-amino function of the lysine moieties in compounds such as 1 and 2 renders the amide bond between the carbonyl of lysine and the amino of dye groups such as AMC or rhodamine resistant to trypsin cleavage then, upon desuccinylation, the lysine/dye amide bond would become cleavable by trypsin. Note that removal of a single succinyl group from 2, followed by cleavage of the desuccinylated lysine would yield a compound with a single free amino function, Ac-K(Succ.)-R110. Monoamides of rhodamine 110 also have increased fluorescence emission at 530 nm relative to 2, although they are less fluorescent than rhodamine 110 itself (Liu et al., 1999). Thus, monitoring the fluorescence at the peak wavelength of the amino form of the dye would allow the desuccinylation reaction to be quantified. A schematic for such an assay is depicted for Compound 1 and SIRT5 in FIG. 1. Trypsin treatment (2 mg/ml) elicits an immediate increase in the fluorescence of a solution of Ac-Lys-AMC (Compound 6—FIG. 1) at the excitation and emission wavelengths of free AMC (Ex. 360 nm; Em. 460 nm), with maximum fluorescence achieved in 2 min. or less and ˜⅔ of that maximum occurring in 1 min. (FIG. 2).

HeLa cell extracts = assay: HeLa cell extract Ac-Lys(ε-succinyl)-AMC desuccinylation activity; assay type: biochemical, human; conditions: 50 μM substrate, 500 μM NAD^+, no inhibitor, 2 hr., 37° C.
Description: Enzyme and extract catalog products obtained from ENZO Life Sciences included: HDAC1 (Cat. # BML-SE456), HDAC2 (Cat. # BML-SE500), HDAC3 (Cat. # BML-SE507), HDAC3/NCOR1 Complex (Cat. # BML-SE515), HDAC6 (Cat. # BML-SE508), HDAC8 (Cat. # BML-SE145), HDAC10 (Cat. # BML-SE559), HDAC11 (Cat. # BML-SE560), SIRT1 (Cat. # BML-SE239), SIRT2 (Cat. # BML-SE251), SIRT3 (Cat. # BML-SE270), SIRT5 (Cat. # BML-SE555), HeLa Nuclear Extract (Cat. # BML-KI140), Trypsin (“Fluor de Lys Developer”, 80 mg/ml bovine trypsin in 1 mM HCl, Cat. # BML-KI105 or “Fluor de Lys Developer II”, 80 mg/ml bovine trypsin in 1 mM HCl, Cat. # BML-KI176). […] Enzymes obtained from BPS Bioscience, San Diego, Calif. included: human recombinants SIRT4 (Cat. #50015), SIRT6 (Cat. #50017), SIRT7 (Cat. #50018). HeLa whole cell extract was obtained from HeLa S3 cells (American Type Culture Collection) grown in a medium of MEM/10% fetal bovine serum (FBS) as follows: 1) 9×10^6 cells were suspended by trypsinization, followed by a phosphate buffered saline (PBS) rinse and addition of MEM/10% FBS (1.5 mL) to eliminate trypsin before transfer to a 15 mL conical tube; 2) cells were sedimented by a low speed centrifugation, gently resuspended in PBS and sedimented again and supernatant removed; 3) lysis was induced by resuspension in 0.8 mL 50 mM Tris/HCl, pH 8.0 with the non-denaturing detergent NP-40 (0.5%), placement on ice and brief vortexing every 5 min. for 30 min.; 4) 100 μl of a concentrated salt solution in the same buffer was added in order to bring the final buffer composition to 50 mM Tris/C1, pH 8.0, 137 mM NaCl, 2.7 mM KCl, 1 mM MgCl2, 0.5% NP-40; 5) particulate matter was cleared by centrifugation and the cleared lysate supernatant transferred to a 1.5 mL Eppendorf tube and stored on ice until use in activity assays.
Assays were performed at 37° C., according to the manufacturer's instructions for the “SIRT1 Fluorometric Drug Discovery Kit” from Enzo Life Sciences (ELS) (Cat. # BML-AK555), with exceptions described as follows. […]

Row | Molecule | Km (SIRT5) [mM] | Trypsin cleavage / change in fluorescence [1] | Trypsin cleavage / change in fluorescence ([1]; listed as Ac-Lys(Succ.)-AMC) | Maximum fluorescence increase over 0 hr./NL (HeLa cell extracts)
1 | Ac-Arg-His-Lys-Lys(ε-acetyl)-AMC (Ac-RHKK(Ac)-{AMC}; SMILES CC(=O)NCCCC[C@H](NC(=O)[C@H](CCCCN)NC(=O)[C@H](Cc1c[nH]cn1)NC(=O)[C@H](CCCNC(=N)N)NC(C)=O)C(=O)Nc1ccc2c(C)cc(=O)oc2c1) [Ac-RHKK(Ac)-AMC, p53 peptide fluorogenic deacetylase substrate, Cat. # BML-KI177, reference compound] | 8.9 | – | – | –
2 | CC(=O)N[C@@H](CCCCNC(=O)CCC(=O)O)C(=O)Nc1ccc2c(C)cc(=O)oc2c1 [Compound 1, N—(N^α-acetyl-L-Lysine(N^ε-succinyl))-AMC] | – | complete resistance to the trypsin cleavage | no change in fluorescence | 22,000
